Source: patent US8592621B2, “Precursor compounds of sweet taste receptor antagonists for the prevention or treatment of disease” (Symrise AG, priority 2009, dated 2013)

How the values were obtained:
[1] = tested on: sweet taste impression of sweet tasting substances; assay: Influence on the sensorial quality of sweet substances (expert panel rating of sweet taste impression); format: in vivo; details: for Sweet taste impression (1-10) Sample (B): scale 1 [not sweet] to 10 [extremely sweet]; for Change in sweet taste impression [%]: sample B vs sample A
Text: In order to quantify the influence of inventive compounds of formula (I) on the sensorial characteristics of various sweet tasting substances, in each case a sample (A) (sweet tasting substance) and a sample (B) (sweet tasting substance+compound of formula (I) or lactisole (as standard)) were sensorially assessed by a group of experts and rated according to their sweet taste impression on a scale of 1 [not sweet] to 10 [extremely sweet]. Then in each case from the average values of the assessments of samples (A) and (B) the change (in %) in the sweet taste impression was calculated.

[2] = tested on: sweet taste intensity (in the oral cavity); assay: Taste tests by a sensory panel (sweet taste intensity in the oral cavity); format: in vivo; details: tasting by sensory panel
Text: From this it can be concluded that during the tasting of the compounds of formulas (1) to (4) in the oral cavity no lactisole was released.

T1R2/T1R3 receptors [3] = target: T1, T1R2/T1R3 receptors (Homo sapiens, UniProt Q7RTX0+Q8TE23); assay: Calcium mobilization (FLIPR) in HEK293TREX cells expressing human TAS1R2/TAS1R3; format: cell-based; details: in the presence of naringin dihydrochalcone; FIG. 3
T1 construct: expressed in transfected cells; TAS1R2 from pCDNA5-FRT, TAS1R3 from pCDNA3-TO (tetracycline-induced), G15-Gi3 from pIRESpuro3
T1 sequence (Q8TE23 20-839): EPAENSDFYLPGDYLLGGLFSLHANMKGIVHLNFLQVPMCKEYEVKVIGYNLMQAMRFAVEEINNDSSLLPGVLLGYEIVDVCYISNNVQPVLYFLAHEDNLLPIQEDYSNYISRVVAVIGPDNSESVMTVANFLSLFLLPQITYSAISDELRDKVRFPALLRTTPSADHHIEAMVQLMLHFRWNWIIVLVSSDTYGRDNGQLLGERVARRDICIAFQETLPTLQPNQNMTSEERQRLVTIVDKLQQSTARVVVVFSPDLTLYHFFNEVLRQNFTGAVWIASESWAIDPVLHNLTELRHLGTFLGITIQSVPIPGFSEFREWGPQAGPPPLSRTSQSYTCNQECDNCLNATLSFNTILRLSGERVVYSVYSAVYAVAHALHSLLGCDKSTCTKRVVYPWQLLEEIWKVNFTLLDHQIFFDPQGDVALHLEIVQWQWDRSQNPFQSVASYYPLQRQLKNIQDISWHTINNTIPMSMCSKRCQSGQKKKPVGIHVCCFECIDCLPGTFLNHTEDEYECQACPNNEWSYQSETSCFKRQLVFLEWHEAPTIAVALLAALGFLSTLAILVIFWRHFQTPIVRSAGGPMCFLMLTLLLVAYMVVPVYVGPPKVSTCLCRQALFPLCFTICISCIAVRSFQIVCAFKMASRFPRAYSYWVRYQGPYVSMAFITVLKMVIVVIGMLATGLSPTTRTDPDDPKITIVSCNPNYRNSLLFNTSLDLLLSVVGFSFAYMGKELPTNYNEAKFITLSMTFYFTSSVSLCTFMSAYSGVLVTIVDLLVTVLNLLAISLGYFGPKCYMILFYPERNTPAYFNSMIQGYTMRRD
T1 sequence (Q7RTX0 21-852): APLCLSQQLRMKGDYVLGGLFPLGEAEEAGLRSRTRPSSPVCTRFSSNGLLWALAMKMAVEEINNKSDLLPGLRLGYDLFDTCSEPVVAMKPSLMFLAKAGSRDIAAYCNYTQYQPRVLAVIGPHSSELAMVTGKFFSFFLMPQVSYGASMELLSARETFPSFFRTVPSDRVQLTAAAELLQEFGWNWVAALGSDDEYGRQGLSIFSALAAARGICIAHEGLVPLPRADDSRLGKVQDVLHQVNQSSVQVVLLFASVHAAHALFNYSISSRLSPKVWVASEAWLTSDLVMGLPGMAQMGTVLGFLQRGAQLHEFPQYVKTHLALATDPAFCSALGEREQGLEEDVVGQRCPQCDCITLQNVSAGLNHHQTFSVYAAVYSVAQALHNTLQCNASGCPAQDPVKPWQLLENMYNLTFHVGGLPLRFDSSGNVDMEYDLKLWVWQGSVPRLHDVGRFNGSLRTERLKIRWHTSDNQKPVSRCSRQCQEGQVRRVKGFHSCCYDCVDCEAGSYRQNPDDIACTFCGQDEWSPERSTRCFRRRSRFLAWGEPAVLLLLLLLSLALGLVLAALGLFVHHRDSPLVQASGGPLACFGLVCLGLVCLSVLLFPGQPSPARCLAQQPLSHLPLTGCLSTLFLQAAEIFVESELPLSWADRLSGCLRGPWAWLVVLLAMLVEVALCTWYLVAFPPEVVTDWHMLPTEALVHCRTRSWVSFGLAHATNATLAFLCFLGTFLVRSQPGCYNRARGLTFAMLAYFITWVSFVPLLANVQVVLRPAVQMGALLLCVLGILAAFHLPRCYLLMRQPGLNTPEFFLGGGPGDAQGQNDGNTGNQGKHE

T1R2/T1R3 receptors [4] = target: T1, T1R2/T1R3 receptors; assay: Activating or inhibiting effect on T1R2/T1R3 receptors according to concentration (same process as application example 3); format: cell-based; details: FIG. 4
Text: A stable cell line (HEK293TREX) extracted from human embryonic renal cells was manufactured with the help of the plasmid pIRESpuro3, coding for the G protein chimeras G15-Gi3. A further plasmid (pCDNA5-FRT), coding for the human TAS1R2 sequence, was also used. In this way it was possible to integrate the gene in a defined chromosomal region. The human TAS1R3 subunit of the human sweet taste receptor was cloned in pCDNA3-TO. This allowed the induction of the target gene using tetracycline. The stable, transfixed cell line was cultivated in high glucose content DMEM without tetracycline. For the measurements the cells were sown and cultivated (37° C., 5% CO2) in polylysine-coated 96-well titrimetric places (black with transparent bases) until they achieved an 80% confluence. […] The calcium mobilization by receptor stimulation by the test substances was measured in an automated fluorometer (fluorometric imaging plate reader FLIPR, Molecular Devices, Sunnyvale, Calif.). The test substances were measured in a concentration of 1 mmol/l or 0.1 mmol/l in C1 solution. All data were determined in two independent experiments, which were each repeated three times. The calcium signals obtained were corrected for the proportion of the mock cells and (using the formula ΔF/F=(F−F0)/F0) normalized on the starting intensity of the fluorescence prior to addition of the test substances (F0).

[5] = Sucrose 5% + test substance 10 mg/l
[6] = Sucrose 5%, test substance 10 mg/l

## CCCCOC(=O)C(C)Oc1ccc(OC)cc1 (stereo not drawn) [Compound of formula (4), 2-(4-methoxyphenoxy)propanoic acid butyl ester]
[1]; Sucrose 5% + test substance 16 mg/l
  Sweet taste impression (1-10) Sample (B): 5.6 ± 1.5
[1]; Sucrose 5%, test substance 16 mg/l
  Change in sweet taste impression [%]: −5%

## COc1ccc(OC(C)C(=O)O)cc1 (stereo not drawn) [Lactisole, 2-(4-methoxyphenoxy)propanoic acid, reference compound]
[2]
  Influence on the sweet taste intensity (in the oral cavity): clear reduction in the sweet taste intensity
[1]; [5]
  Sweet taste impression (1-10) Sample (B): 4.2 ± 1.4
[1]; [6]
  Change in sweet taste impression [%]: −27%

## CCCCCCOC(=O)C(C)Oc1ccc(OC)cc1 (stereo not drawn) [Compound of formula (1), 2-(4-methoxyphenoxy)-propanoic acid hexyl ester]
T1R2/T1R3 receptors [3]
  Antagonistic effect (inhibition) on the sweet taste receptor: do not themselves demonstrate any antagonistic effect
[1]; Sucrose 5% + test substance 14 mg/l
  Sweet taste impression (1-10) Sample (B): 5.0 ± 1
[1]; Sucrose 5%, test substance 14 mg/l
  Change in sweet taste impression [%]: −10%

## COc1ccc(OC(C)C(=O)OCC(COC(=O)C(C)Oc2ccc(OC)cc2)OC(=O)C(C)Oc2ccc(OC)cc2)cc1 (stereo not drawn) [Compound of formula (2), 2-(4-methoxyphenoxy)propanoic acid-2,3-bis-[2-(4-methoxyphenoxy)-propionyloxy]-propyl ester]
T1R2/T1R3 receptors [3]
  Antagonistic effect (inhibition) on the sweet taste receptor: do not themselves demonstrate any antagonistic effect
T1R2/T1R3 receptors [4]; in the presence of aspartame or sucrose
  Antagonistic effect on the sweet taste receptor: does not demonstrate any antagonistic effect
T1R2/T1R3 receptors [4]; in the presence of the compound
  Dose-effect curve for aspartame or saccharose: not altered
[1]; Naringin dihydrochalcone 50 mg/l + test substance 10 mg/l
  Sweet taste impression (1-10) Sample (B): 5.6 ± 2.1
[1]; Naringin dihydrochalcone 50 mg/l, test substance 10 mg/l
  Change in sweet taste impression [%]: 9%
[1]; [5]
  Sweet taste impression (1-10) Sample (B): 5.6 ± 1.5
[1]; [6]
  Change in sweet taste impression [%]: 3%
